Laboratory results from patent US10322165B2, “TIFA antagonists and their use for treating diseases” (ACADEMIA SINICA, priority 2017, dated 2019).

Experiments:
[1] = system: NF-κB; assay: Luciferase reporter assay and western blot for NF-κB activity; assay type: cell-based; settings: for TNF-α-dependent NF-κB activation and elevations of NF-κB signaling factors: U937 cells stably expressing the fragment, 10 ng/mL TNF-α for 30 min
Procedure: After 5 repeated freeze-thaw cycles, cell extracts were cleared by centrifugation at 4° C. Cell extracts were quantified using Bradford assay, and equal amounts of soluble proteins were mixed with SDS sample buffer, boiled, separated by SDS-PAGE, and blotted onto PVDF membranes (Millipore). Membranes were then blocked for 1 h with 5% dry milk in PBST (PBS supplemented with 0.1% Tween-20) buffer and incubated for overnight at 4° C. with primary antibody diluted in PBST containing 1% bovine serum albumin (Sigma). After three washes with PBST, membranes were incubated with HRP-conjugated anti-mouse or anti-rabbit IgG. […] All western blot analyses were performed independently at least three times except that of primary PBMCs.
Luciferase-based NF-κB reporter assay was conducted as previously described (20). A total of 6×10^5 293T or 10^6 suspension U937 Cells in one well of 6-well plates with indicated conditions were transiently transfected with 2 μg of pNF-κB-Luc reporter plasmid for 48 h before harvest. Cells were treated with 10 ng/mL TNF-α (R&D Systems) for 30 min and lysed with 1× passive lysis buffer (Promega). 100 μg of cell lysates was dispensed into a well of 96-well plate, followed by addition of 100 μL of luciferase assay buffer LARII (Promega) and 100 μL of Stop & Glo reagent (Promega). The triplicated chemiluminescence were measured by SpectraMax Paradigm Multi-Mode Plate Reader (Molecular Devices) and normalized to corresponding β-actin level from a parallel western blot analysis of cell lysates. Results were represented as relative luminescence units (RLU) from three independent experiments.

[2] = system: AML cell lines HL-60, KG-1, THP-1, and U937; assay: WST-1 viability assay, growth of AML lines; assay type: cell-based; settings: WST-1, time course after TIFA silencing
Procedure: (§1) To silence specific genes, 6×10^5293T cells or 10^6 suspension cells were transfected with 30 pmol (293T cells) or 50 pmol (suspension cells) of indicated siRNA supplemented with 9 or 15 μL of Lipofectamine RNAiMAX (Invitrogen) in the presence of Opti-MEM (Invitrogen) according to the manufacturer's instruction. Six hours after primary transfection, cells were incubated with the regular medium for 24 h, and the secondary siRNA transfection was performed with the same protocol. Cells or conditional media were collected after 72 h of incubation.
(§2) A total of 10^5 suspension cells under indicated condition were seeded per well in 96-well plates and cell viability was analyzed at the indicated time point post treatment.

[3] = system: acute lymphoblastic leukemia (ALL) line Jurkat and CML line K562; assay: WST-1 viability assay, proliferation of ALL and CML lines; assay type: cell-based
Procedure: as §1, §2

[4] = system: AML PBMCs; assay: WST-1 viability and chemosensitivity of freshly isolated AML PBMCs; assay type: cell-based, human; settings: TIFA silencing
Source text: Hela, 293T, and HL-60 cell lines were obtained from Dr. Li-Jung Juan of Academia Sinica (Taipei, Taiwan, 2014), KG-1 cell line was obtained from Prof. Shih-Lan Hsu of Taichung Veterans General Hospital (Taichung, Taiwan, 2015), and the rest of cell lines were obtained from Dr. Shui-Tein Chen of Academia Sinica (Taipei, Taiwan, 2015). All cell lines were expanded and stored in liquid nitrogen when received. Original vials were thawed for these experiments and authenticated simultaneously by STR DNA fingerprinting using the Promega GenePrint® 10 System and analyzed by ABI PRISM 3730 GENETIC ANALYZER and GeneMapper® softeware. All resulting SI R profiles were matched with known ATCC fingerprints (ATCC.org). Maintenance of respective cell lines followed our previous protocols (20,27,28). 293T and HeLa cells were maintained in Dulbecco's modified Eagle's medium (DMEM, Gibco). […] All media were supplemented with 10% decomplemented fetal bovine serum (FBS, Gibco), […] L-glutamine (Gibco), 100 U/mL penicillin (Gibco) and 100 μg/mL streptomycin (Gibco). All cells were incubated in a humidified atmosphere at 37° C. with 5% CO2. To isolate human PBMCs, freshly acquired whole bloods were layered over Ficoll (GE healthcare) as previously described (28). Isolated primary cells were maintained according to a previously described protocol (29) and subjected to experimental analyses within two weeks. […]

[5] = system: U937 cells; assay: WST-1 viability of cytarabine-treated U937 cells; assay type: cell-based; settings: 5 μg/mL etanercept, 50 nM bortezomib, or 1 μM ABT-263 together with 10 μM cytarabine
Procedure: as §2

[6] = system: MCF-7 (breast cancer cells); assay: WST-1 cytotoxicity of anti-cancer treatments with or without TIFA silencing; assay type: cell-based; settings: 4th day, Sorafenib 5 μM, Cisplatin 5 μM, Etoposide 10 μM, IR 5Gy
Procedure: (§3) For transient transfection of 293T cells, 6×10^5 cells were transfected with 2 μg of indicated plasmid DNA using Jet-PEI (Polyplus Transfection) for 48 h (pCDNA3.1 vector, HA-tagged TIFA, and pNF-κB-Luc) or 24 h (Flag-tagged Aurora A) according to the manufacturer's instruction. For transient transfection of U937 cells, 10^6 suspension cells were transfected with 3 μg of the pNF-κB-Luc plasmid DNA using Lipofectamine 2000 (Invitrogen) for 48 h according to the manufacturer's instruction. To silence specific genes, 6×10^5293T cells or 10^6 suspension cells were transfected with 30 pmol (293T cells) or 50 pmol (suspension cells) of indicated siRNA supplemented with 9 or 15 μL of Lipofectamine RNAiMAX (Invitrogen) in the presence of Opti-MEM (Invitrogen) according to the manufacturer's instruction. Six hours after primary transfection, cells were incubated with the regular medium for 24 h, and the secondary siRNA transfection was performed with the same protocol. Cells or conditional media were collected after 72 h of incubation.
as §2
(§4) Cytotoxicity of cells at the 4th day was normalized to treatment without TIFA silencing and presented.

[7] = system: AML lines (HL-60, KG-1, THP-1, U937); assay: WST-1 based survival test, IC50 of chemo drugs in AML lines; assay type: cell-based; settings: all four tested AML lines; siTIFA vs control siRNA
[8] = system: U937 cells; assay: Cytokine antibody array and ELISA of secreted cytokines; assay type: cell-based; settings: 10 μM cytarabine, conditioned media
Procedure: Condition media from equal numbers of cultured U937 cells were collected at 72 h post indicated treatments and assessed by the Human Cytokine Array C1 according to the manufacturer's instruction (AAH-CYT-1, RayBiotech). Data were acquired using the ImageJ software and normalized to the positive controls. When indicated, the amounts of secreted cytokines and chemokines in the conditional mediums were determined by the enzyme-linked immunosorbent assay (ELISA) test kit following the manufacturer's instructions (R&D Systems). The absorbances of triplicated samples were read by SpectraMax Paradigm Plate Reader (Molecular Devices).

[9] = system: J5 (liver cancer cells); assay: WST-1 cytotoxicity of anti-cancer treatments with or without TIFA silencing; assay type: cell-based; settings: 4th day, Sorafenib 5 μM, Cisplatin 5 μM, Etoposide 10 μM, IR 5Gy
Procedure: as §3, §2, §4

[10] = system: MDA-MB-231 (breast cancer cells); assay: as above; assay type: cell-based; settings: 4th day, Sorafenib 5 μM, Cisplatin 5 μM, Etoposide 10 μM, IR 5Gy
Procedure: as §3, §2, §4

[11] = system: NTera2 (testicular embryonic carcinoma); assay: as above; assay type: cell-based; settings: 4th day, Sorafenib 5 μM, Cisplatin 5 μM, Etoposide 10 μM, IR 5Gy
Procedure: as §3, §2, §4

[12] = system: A549 (lung cancer cells); assay: as above; settings: 4th day, Sorafenib 5 μM, Cisplatin 5 μM, Etoposide 10 μM, IR 5Gy
Procedure: as §3, §2, §4

[13] = system: H446 (lung cancer cells); assay: as above; settings: 4th day, Sorafenib 5 μM, Cisplatin 5 μM, Etoposide 10 μM, IR 5Gy
Procedure: as §3, §2, §4

[14] = system: HeLa (cervical cancer cells); assay: as above; settings: 4th day, Sorafenib 5 μM, Cisplatin 5 μM, Etoposide 10 μM, IR 5Gy
Procedure: as §3, §2, §4

[15] = system: HepG2 (liver cancer cells); assay: as above; settings: 4th day, Sorafenib 5 μM, Cisplatin 5 μM, Etoposide 10 μM, IR 5Gy
Procedure: as §3, §2, §4

[16] = system: Jurkat (leukaemia cells); assay: as above; settings: 4th day, Sorafenib 5 μM, Cisplatin 5 μM, Etoposide 10 μM, IR 5Gy
Procedure: as §3, §2, §4

[17] = system: K562 (leukaemia cells); assay: as above; settings: 4th day, Sorafenib 5 μM, Cisplatin 5 μM, Etoposide 10 μM, IR 5Gy
Procedure: as §3, §2, §4

[18] = system: THP-1 (leukaemia cells); assay: as above; settings: 4th day, Sorafenib 5 μM, Cisplatin 5 μM, Etoposide 10 μM, IR 5Gy
Procedure: as §3, §2, §4

[19] = system: U2OS (osteosarcoma cells); assay: as above; settings: 4th day, Sorafenib 5 μM, Cisplatin 5 μM, Etoposide 10 μM, IR 5Gy
Procedure: as §3, §2, §4

[20] = molecular target: T1, endogenous TIFA (Homo sapiens, UniProt Q96CG3); assay: Immunoprecipitation of lysates from transduced U937 cells; assay type: binding; settings: U937 cells stably expressing Myc-tagged fragment; anti-Myc immunobeads, western blot
T1 construct: endogenous in cells; host or cells: U937 cells (retrovirally transduced with Myc-tagged TIFA fragments)
T1 sequence (Q96CG3 1-184): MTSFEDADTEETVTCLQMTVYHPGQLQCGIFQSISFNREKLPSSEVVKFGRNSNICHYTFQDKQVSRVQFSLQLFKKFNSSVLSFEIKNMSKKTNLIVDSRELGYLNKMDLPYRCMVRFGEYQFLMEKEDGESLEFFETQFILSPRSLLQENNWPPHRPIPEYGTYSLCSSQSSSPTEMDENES

**Q.** What does the source list for “5′-UCAGGACAAACAGGUUUCCCGAGUU-3′ [TIFA siRNA]”?
**A.** elevation of activated NF-κB, phosphorylated IκK and IκB, and NF-κB-driven luciferase activity ([1]; overexpression of Aurora A (293T) or TNF-α treatment (U937), silencing of TIFA): negated; growth of AML cell lines [2]: attenuates the growth; cell proliferation [3]: inhibited; growth of AML PBMCs ([4]; WST-1 time course): growth retardation; chemosensitivities of patient-derived PBMCs ([4]; chemo drug treatments, WST-1): consistently promoted chemosensitivities

**Q.** Which “cytotoxicity of cytarabine-treated U937 cells” value [5] does the source give for CC(C)C[C@H](NC(=O)[C@H](Cc1ccccc1)NC(=O)c1cnccn1)B(O)O [bortezomib] here?
**A.** enhanced the cytotoxicity

**Q.** How did the “fold change of cytotoxicity (cytotoxicity of TIFA silencing/cytotoxicity of non-silencing)” value [6] turn out when CNC(=O)c1cc(Oc2ccc(NC(=O)Nc3ccc(Cl)c(C(F)(F)F)c3)cc2)ccn1 [Sorafenib, sorafenib] was run?
**A.** 1.47 fold changes

**Q.** With Nc1ccn([C@@H]2O[C@H](CO)[C@@H](O)[C@@H]2O)c(=O)n1 [cytarabine] as the molecule, how does the “decrease in IC50 of the chemo drug under TIFA silencing” value [7] read?
**A.** ca. 50%

**Q.** And the “secretion of IL-6” value [8]?
**A.** suppressed

**Q.** And the “secretion of TNF-α, CXCL-1, and IL-8” value [8]?
**A.** promoted

**Q.** For CC1(C)CCC(c2ccc(Cl)cc2)=C(CN2CCN(c3ccc(C(=O)NS(=O)(=O)c4ccc(N[C@H](CCN5CCOCC5)CSc5ccccc5)c(S(=O)(=O)C(F)(F)F)c4)cc3)CC2)C1 [ABT-263], which “cytotoxicity of cytarabine-treated U937 cells” value [5] is on record?
**A.** enhanced the cytotoxicity

**Q.** How did the “decrease in IC50 of the chemo drug under TIFA silencing” value [7] turn out when CC(=O)[C@]1(O)Cc2c(O)c3c(c(O)c2[C@@H](O[C@H]2C[C@H](N)[C@H](O)[C@H](C)O2)C1)C(=O)c1ccccc1C3=O [idarubicin] was run?
**A.** ca. 50%

**Q.** For Cc1cc(Nc2cc(N3CCN(C)CC3)nc(Sc3ccc(NC(=O)C4CC4)cc3)n2)n[nH]1 [VX680], which cell proliferation [3] is on record?
**A.** inhibited

**Q.** For etanercept, which “cytotoxicity of cytarabine-treated U937 cells” value [5] is on record?
**A.** enhanced the cytotoxicity

**Q.** Which results are given for COc1cc([C@@H]2c3cc4c(cc3[C@@H](O[C@@H]3O[C@@H]5CO[C@@H](C)O[C@H]5[C@H](O)[C@H]3O)[C@H]3COC(=O)[C@H]23)OCO4)cc(OC)c1O [Etoposide, etoposide]?
**A.** fold change of cytotoxicity (cytotoxicity of TIFA silencing/cytotoxicity of non-silencing) [9]: 1.64 fold changes; fold change of cytotoxicity (cytotoxicity of TIFA silencing/cytotoxicity of non-silencing) [6]: 1.30 fold changes; fold change of cytotoxicity (cytotoxicity of TIFA silencing/cytotoxicity of non-silencing) [10]: 1.46 fold changes; fold change of cytotoxicity (cytotoxicity of TIFA silencing/cytotoxicity of non-silencing) [11]: 1.15 fold changes; decrease in IC50 of the chemo drug under TIFA silencing [7]: ca. 50%; fold change of cytotoxicity (cytotoxicity of TIFA silencing/cytotoxicity of non-silencing) [12]: 1.77 fold changes; fold change of cytotoxicity (cytotoxicity of TIFA silencing/cytotoxicity of non-silencing) [13]: 1.27 fold changes; fold change of cytotoxicity (cytotoxicity of TIFA silencing/cytotoxicity of non-silencing) [14]: 1.29 fold changes; fold change of cytotoxicity (cytotoxicity of TIFA silencing/cytotoxicity of non-silencing) [15]: 1.61 fold changes; fold change of cytotoxicity (cytotoxicity of TIFA silencing/cytotoxicity of non-silencing) [16]: 1.79 fold changes; fold change of cytotoxicity (cytotoxicity of TIFA silencing/cytotoxicity of non-silencing) [17]: 2.28 fold changes; fold change of cytotoxicity (cytotoxicity of TIFA silencing/cytotoxicity of non-silencing) [18]: 1.59 fold changes; fold change of cytotoxicity (cytotoxicity of TIFA silencing/cytotoxicity of non-silencing) [19]: 1.48 fold changes

B1: F1F2: dominant-negative TIFA fragment: Thr9 segment (F1) plus dimerization-core (F2), Myc-tagged, expressed by retroviral transduction (protein)
chain: MTSFEDADTEETVTCLQMTVYHPGQLQCGIFQSISFNREKLPSSEVVKFGRNSNICHYTFQDKQVSRVQFSLQLFKKFNSSVLSFEIKNMSKKTNLIVDSREL
modifications: left off: small tags and cut ends
notes: dominant-negative TIFA fragment: Thr9 segment (F1) plus dimerization-core (F2), Myc-tagged, expressed by retroviral transduction
**Q.** Which results are given for B1?
**A.** TNF-α-dependent NF-κB activation and elevations of NF-κB signaling factors [1]: attenuated; pull down of endogenous TIFA [20]: able to pull down endogenous TIFA

B2: F2F3: dominant-negative TIFA fragment: dimerization-core (F2) plus TRAF6/TRAF2 interacting segment (F3), Myc-tagged, expressed by retroviral transduction (protein)
chain: VVKFGRNSNICHYTFQDKQVSRVQFSLQLFKKFNSSVLSFEIKNMSKKTNLIVDSRELGYLNKMDLPYRCMVRFGEYQFLMEKEDGESLEFFETQFILSPRSLLQENNWPPHRPIPEYGTYSLCSSQSSSPTEMDENES
modifications: left off: small tags and cut ends
**Q.** Which “TNF-α-dependent NF-κB activation and elevations of NF-κB signaling factors” value [1] does the source give for B2 here?
**A.** attenuated

**Q.** What about the “pull down of endogenous TIFA” value [20] of the same molecule?
**A.** able to pull down endogenous TIFA
